Experimental data published in patent publication US20170173186A9, “MURINE WOUND MODEL FOR TESTING PATHOGEN VIRUENCE AND THERAPEUTIC EFFICACY” (priority 2013, published 2017).
In brackets after ≈: the same amount, converted by molar mass.

Columns and labels:
[1] = tested on: A. baumannii AB5075; assay: Murine dorsal wound infection model (neutropenic BALB/c mice), wound area measurement and gross pathology; type: in vivo, Acinetobacter baumannii
[2] = tested on: A. baumannii AB5075; assay: Murine dorsal wound infection model, percent weight change; type: in vivo, Acinetobacter baumannii; details: for median loss of infection-day body weight: Day 1 post-infection; for maximal median loss of infection-day body weight: maximal loss over days 1 through 6 post-infection; for duration of significantly less weight loss than placebo: post-infection, Kruskal-Wallis test followed by Dunn's post-test
Procedure: All procedures were performed in accordance with protocol IB02-10 that was approved by the Walter Reed Army Institute of Research (WRAIR)/Navy Medical Research Center (NMRC) Institutional Animal Care and Use Committee (Silver Spring, Md.). Mice received 150 mg/kg and 100 mg/kg cyclophosphamide intraperitoneal (IP) injections, before wounding and infection, on days −4 and −1, respectively (22, 24). On Day 0, the day of wounding and inoculum, mice were anesthetized with ketamine 130 mg/kg (KETASET®, Fort Dodge Animal Health, Fort Dodge, Iowa), xylazine 10 mg/kg (ANASED®, Lloyd Inc. Shenandoah, Iowa), and buprenorphine 0.05 mg/kg (Hospira Inc., Lake Forest, Ill.) injections. Hair was clipped from the cervical to mid-lumbar dorsum, and the skin scrubbed with iodine solution followed by an ethanol rinse. A 6.0 mm disposable skin biopsy punch (VisiPunch, Huot Instruments, LLC, Menomonee Falls, Wis.) was used to create a full-thickness skin defect overlying thoracic spinal column and the adjacent musculature. Twenty-five μL containing 5.0×10^4 AB5075 cells in a PBS suspension were pipetted into the wound, and allowed to absorb for three minutes. A circular cutout (30 mm diameter) of transparent dressing (TEGADERM™Roll, 3M Health Care, St. Paul, Minn.) was placed over the wound and secured with tissue adhesive (VETBOND™, 3M Animal Care, St. Paul, Minn.). […] However, the size of the wound was increased to 6 mm in order to facilitate subsequent punch biopsies to measure bacterial burden in the wound tissue.
(§1) Beginning four hours post-inoculation, mice were treated with either rifampin at 25 mg/kg IP injection once daily, doxycycline 25 mg/kg IP injection twice daily, or an equivalent vehicle control over the course of a six day treatment period (25, 26). On Day 7 the transparent dressing was removed, treatment discontinued, and the wound monitored for closure through Day 25.
All statistical analyses were carried out using Graphpad Prism software. […] CFU burdens were compared via the Kruskal-Wallis test followed by Dunn's multiple comparison tests. All results were considered significant if p<0.05.

[3] = tested on: A. baumannii AB5075; assay: Murine dorsal wound infection model, CFU burden in wound tissue (4 mm biopsy punch); type: in vivo, Acinetobacter baumannii
[4] = tested on: A. baumannii AB5075; assay: Murine dorsal wound infection model, PNA-FISH examination of AB5075 localization in wound tissue; type: in vivo, Acinetobacter baumannii; details: Day 1
Procedure: All procedures were performed in accordance with protocol IB02-10 that was approved by the Walter Reed Army Institute of Research (WRAIR)/Navy Medical Research Center (NMRC) Institutional Animal Care and Use Committee (Silver Spring, Md.). Mice received 150 mg/kg and 100 mg/kg cyclophosphamide intraperitoneal (IP) injections, before wounding and infection, on days −4 and −1, respectively (22, 24). On Day 0, the day of wounding and inoculum, mice were anesthetized with ketamine 130 mg/kg (KETASET®, Fort Dodge Animal Health, Fort Dodge, Iowa), xylazine 10 mg/kg (ANASED®, Lloyd Inc. Shenandoah, Iowa), and buprenorphine 0.05 mg/kg (Hospira Inc., Lake Forest, Ill.) injections. […]
as §1
One mouse from each treatment group (placebo, rifampin, and doxycycline) and from representative time points (Days 1, 3, and 7) were sacrificed in order to characterize the dissemination of AB5075 within wound tissue via peptide nucleic acid fluorescence in situ hybridization (PNA-FISH) (33). […]

[5] = tested on: A. baumannii AB5075; assay: Murine dorsal wound infection model, SEM analysis of biofilm on occlusive dressings and wound tissue; type: in vivo, Acinetobacter baumannii
[6] = tested on: A. baumannii AB5075; assay: Murine dorsal wound infection model, time course histopathology of wounds (H&E); type: in vivo, Acinetobacter baumannii
[7] = tested on: A. baumannii AB5075; details: cited from earlier work
[8] = Day 3 post-infection, BALB/c mice, IP treatment from 4 h post-inoculation (rifampin 25 mg/kg once daily, doxycycline 25 mg/kg twice daily)
[9] = Day 8 post-infection, one day after occlusive dressing removed, six day IP treatment
[10] = Day 15 post-infection, six day IP treatment
[11] = Day 21 post-infection, six day IP treatment

Row | SMILES | median wound size [1, 8] [mm^2] | median wound size [1, 9] [mm^2] | median wound size [1, 10] [mm^2] | median wound size [1, 11] [mm^2] | median loss of infection-day body weight [2] [%] | maximal median loss of infection-day body weight [2] [%] | duration of significantly less weight loss than placebo [2] [days] | median CFU burden ([3]; 3 days post-infection) | median CFU burden ([3]; Day 7 post-infection) | median CFU burden ([3]; after 24 hours of infection) | reduction of median CFU burden versus placebo ([3]; after 24 hours of infection) [log] | A. baumannii cells in wound bed by Acinetobacter-specific PNA probe [4] | biofilm on occlusive dressing by SEM ([5]; Day 3 (rifampin: Days 3 or 7) post-infection) | bacteria on occlusive dressing by SEM ([5]; one day post-infection) | histopathology of wound (H&E) ([6]; Day 15) | histopathology of wound (H&E) ([6]; Day 23) | MIC [7] [µg/mL]
1 | CO[C@H]1/C=C/O[C@@]2(C)Oc3c(C)c(O)c4c(O)c(c(/C=N/N5CCN(C)CC5)c(O)c4c3C2=O)NC(=O)/C(C)=C\C=C\[C@H](C)[C@H](O)[C@@H](C)[C@@H](O)[C@@H](C)[C@H](OC(C)=O)[C@@H]1C [rifampin] | 35.0 | 34.5 | 5.5 | 0.0 | 6.7 | 6.8 | 5 | 4.7×10^4 CFU per 4 mm tissue biopsy punch | 6.1×10^5 CFU per 4 mm tissue biopsy punch | 5.7×10^5 CFU per 4 mm tissue biopsy punch | 1 | clearance of A. baumannii cells below the level of detection at all levels of the wound bed | no biofilm formation was observed on dressings | no substantial amount of bacteria observed on the dressing | re-epithelization over the wound was observed | signs of contractile healing and re-epithelized wound beds | 4.0 (≈ 4.86 µM)
2 | C[C@H]1c2cccc(O)c2C(=O)C2=C(O)[C@]3(O)C(=O)C(C(N)=O)=C(O)[C@@H](N(C)C)[C@@H]3[C@@H](O)[C@@H]21 [doxycycline] | 31.0 | 29.0 | 2.0 | 0.0 | 5.3 | 11.8 | 4 | 5.0×10^4 CFU per 4 mm tissue biopsy punch | 6.2×10^5 CFU per 4 mm tissue biopsy punch | 5.9×10^5 CFU per 4 mm tissue biopsy punch |  |  |  |  |  |  | 
